Measurements: PMC7226045, “Ensartinib (X-396) Effectively Modulates Pharmacokinetic Resistance Mediated by ABCB1 and ABCG2 Drug Efflux Transporters and CYP3A4 Biotransformation Enzyme” (Cancers, 2020)
Read-outs that look alike come from different tables or passages of the source.

Key:
MDCKII-parent cells = experiment: MTT proliferation / drug combination assay, MDCKII-parent; type: cell-based, canine; conditions: Canis lupus familiaris, 48 h
Protocol: (§1) MTT proliferation assay was performed as described previously.

MDCKII-ABCB1 cells = experiment: MTT proliferation / drug combination assay, MDCKII-ABCB1; conditions: Canis lupus familiaris, 48 h
Protocol: MTT proliferation assay was performed as described previously. Cells were seeded on a 96-well culture plate at densities (in units of cells/well) of 1.3 × 10^4 for MDCKII-par, MDCKII-ABCB1, MDCKII-ABCG2, and MDCKII-ABCC1; 1.2 × 10^4 for A431-par, A431-ABCB1, A431-ABCG2 and A431-ABCC1; 1.2 × 10^4 for NCI-H1299; 2.0 × 10^4 for Caco-2; 5.0 × 10^4 for LS174T; and 6.0 × 10^4 for HepG2-CYP3A4 and HepG2-EV. After seeding, the cells were cultured for 24 h, then the media was removed and the cells were treated with serial dilutions of a drug or drug combination for 48 h. Vehicles containing media and 40% DMSO in media served as 100% and 0% viability controls, respectively. Upon completion of the 48 h period, the cells were washed once with 1× PBS, the media was replaced with an MTT solution in Opti-MEM (1 mg/mL), and the cells were incubated under standard conditions for 60 min. MTT solution was carefully removed and the resulting formazan crystals were immediately solubilized in DMSO. The cells were then shaken gently for 10 min, after which absorbance of their lysate was measured at 570 nm and 690 nm using a microplate reader (Infinite M200, Tecan, Salzburg, Austria); background values obtained at 690 nm were subtracted from the measurements obtained at 570 nm. This method was used to assess the effect of ABC transporters on sensitivity to ensartinib, in drug combination assays, and to identify drug concentrations appropriate for use in induction studies.
(§2) Experiments focusing on the modulation of ABC transporter-mediated resistance were performed as described previously. The parent MDCKII and HL60 cells and their ABCB1-, ABCG2-, and ABCC1-overexpressing counterparts were seeded at the densities specified above onto 96-well culture plates and cultured for 24 h. The medium was subsequently replaced with serial dilutions of ensartinib alone or with various concentrations of a model MDR-susceptible cytostatic agent (daunorubicin or mitoxantrone) with or without 10 µM ensartinib. After 48 h incubation, the cells’ viability was determined as described above. In addition to performing IC50-shift analyses, the viability measurements were converted to FA (fraction of cells affected) values and the effects of drug combinations were quantified using the Chou-Talalay combination index (CI) method as implemented in CompuSyn 3.0.1 (ComboSyn Inc., Paramus, NJ, USA). The effects of concomitantly administered drugs were classified as synergistic (CI < 0.9), additive (0.9 < CI < 1.1), or antagonistic (CI > 1.1) based on the computed CI values.

HL60-parent cells = experiment: XTT proliferation / drug combination assay, HL60-parent; type: cell-based, human; conditions: Homo sapiens, 48 h
Protocol: The parent MDCKII and HL60 cells and their ABCB1-, ABCG2-, and ABCC1-overexpressing counterparts were seeded at the densities specified above onto 96-well culture plates and cultured for 24 h. The medium was subsequently replaced with serial dilutions of ensartinib alone or with various concentrations of a model MDR-susceptible cytostatic agent (daunorubicin or mitoxantrone) with or without 10 µM ensartinib. After 48 h incubation, the cells’ viability was determined as described above. In addition to performing IC50-shift analyses, the viability measurements were converted to FA (fraction of cells affected) values and the effects of drug combinations were quantified using the Chou-Talalay combination index (CI) method as implemented in CompuSyn 3.0.1 (ComboSyn Inc., Paramus, NJ, USA). The effects of concomitantly administered drugs were classified as synergistic (CI < 0.9), additive (0.9 < CI < 1.1), or antagonistic (CI > 1.1) based on the computed CI values [57].

HL60-ABCB1 cells = experiment: XTT proliferation / drug combination assay, HL60-ABCB1; conditions: Homo sapiens, 48 h
Protocol: (§3) The MTT method is not readily adapted for use with suspension cell cultures, therefore the XTT assay was used to assess the proliferation of HL60 cells. Briefly, HL60-par, HL60-ABCB1, HL60-ABCG2, and HL60-ABCC1 cells were seeded at 2 × 10^4 cells/well in 96-well culture plates. Immediately after seeding, dilutions of the tested drugs or drug combinations were added to the cells. The plates were then incubated under standard conditions (37 °C, 5% CO2) for 48 h, after which XTT solution in PBS (1 mg/mL) and phenazine methosulfate (7.50 µg/mL) were added to the cells and the plates were incubated for another 5 h. Finally, the cells’ absorbance was measured at 450 nm using a microplate reader (Infinite M200, Tecan, Salzburg, Austria). This method was used to assess the effect of ABC transporters on sensitivity to ensartinib and in drug combination assays.
as §2

HepG2-CYP3A4 cells = experiment: Docetaxel combination assay (MTT), HepG2-CYP3A4; type: cell-based, human; conditions: 1 µM docetaxel
Protocol: as §1
(§4) Cell viability was measured after a 48 h incubation using the MTT method as described above. […] Sensitization effects of < 0%, 0%, and >0% indicate antagonism, additivity, and synergism, respectively.

HepG2-EV cells = experiment: Docetaxel combination assay (MTT), HepG2-EV; type: cell-based, human; conditions: 1 µM docetaxel, <0% antagonism, =0% additivity, >0% synergism
Protocol: as §1, §4

MDCKII-ABCG2 cells = experiment: MTT proliferation / drug combination assay, MDCKII-ABCG2; type: cell-based, canine; conditions: Canis lupus familiaris, cytostatic alone or with 10 µM ensartinib, 48 h
Protocol: as §1

HL60-ABCG2 cells = experiment: XTT proliferation / drug combination assay, HL60-ABCG2; type: cell-based, human; conditions: Homo sapiens, cytostatic alone or with 10 µM ensartinib, 48 h
Protocol: as §3, §2

With `COc1cccc2c1C(=O)c1c(O)c3c(c(O)c1C2=O)C[C@@](O)(C(C)=O)C[C@@H]3O[C@H]1C[C@H](N)[C@H](O)[C@H](C)O1` [daunorubicin] as the molecule, how does the IC50 (MDCKII-parent cells) read?
The IC50 was 947 nM.

What about the IC50 (MDCKII-ABCB1 cells) of the same molecule?
Its IC50 is 11900 nM.

And the IC50 (HL60-parent cells)?
The IC50 was 53.1 nM.

And the IC50 (HL60-ABCB1 cells)?
Its IC50 is 2390 nM.

For `CC(=O)O[C@@]12CO[C@@H]1C[C@H](O)[C@@]1(C)C(=O)[C@H](O)C3=C(C)[C@@H](OC(=O)[C@H](O)[C@@H](NC(=O)OC(C)(C)C)c4ccccc4)C[C@@](O)([C@@H](OC(=O)c4ccccc4)[C@H]21)C3(C)C` [docetaxel], which viability at 1 µM (HepG2-CYP3A4 cells; Homo sapiens, 48 h, HepG2-CYP3A4 vs HepG2-EV, read-out: viability of CYP3A4-overexpressing cells greater than that of empty vector cells) is on record?
Its viability at 1 µM is 24.4%.

For `CC(=O)N1CCN(c2ccc(OCC3COC(Cn4ccnc4)(c4ccc(Cl)cc4Cl)O3)cc2)CC1` (centres unmarked) [ketoconazole], which “sensitization effect of combination with docetaxel” value (HepG2-CYP3A4 cells; HepG2-CYP3A4, <0% antagonism, =0% additivity, >0% synergism) is on record?
The value was “synergistic”.

And the “sensitization effect of combination with docetaxel” value (HepG2-EV cells)?
The value was “antagonistic”.

How did the IC50 (MDCKII-parent cells; MDCKII-parent, cytostatic alone or with 10 µM ensartinib, read-out: IC50) turn out when `O=C1c2c(O)ccc(O)c2C(=O)c2c(NCCNCCO)ccc(NCCNCCO)c21` [mitoxantrone] was run?
The IC50 was 1590 nM.

And the IC50 (MDCKII-ABCG2 cells)?
The IC50 was 9980 nM.

And the IC50 (HL60-parent cells; HL60-parent, cytostatic alone or with 10 µM ensartinib, read-out: IC50)?
Its IC50 is 30.5 nM.

What about the IC50 (HL60-ABCG2 cells) of the same molecule?
The IC50 was 666 nM.
